Literature values in patent publication US20130312498A1, “CARDIOVASCULAR DISEASE RISK ASSESSMENT AND TREATMENT BY STEROL AND/OR STANOL MARKERS” (FOUNDATION FOR HEALTH IMPROVEMENT AND TECHNOLOGY, priority 2012, published 2013).

Columns and labels:
[1] = molecular target: T1, NPC1L1/AP2-clathrin complex (Homo sapiens, UniProt Q9UHC9); details: typical effect, intestinal sterol absorption
T1 construct: from tissue; host or cells: intestinal epithelium (in vivo, patients)
T1 sequence (Q9UHC9 22-1359): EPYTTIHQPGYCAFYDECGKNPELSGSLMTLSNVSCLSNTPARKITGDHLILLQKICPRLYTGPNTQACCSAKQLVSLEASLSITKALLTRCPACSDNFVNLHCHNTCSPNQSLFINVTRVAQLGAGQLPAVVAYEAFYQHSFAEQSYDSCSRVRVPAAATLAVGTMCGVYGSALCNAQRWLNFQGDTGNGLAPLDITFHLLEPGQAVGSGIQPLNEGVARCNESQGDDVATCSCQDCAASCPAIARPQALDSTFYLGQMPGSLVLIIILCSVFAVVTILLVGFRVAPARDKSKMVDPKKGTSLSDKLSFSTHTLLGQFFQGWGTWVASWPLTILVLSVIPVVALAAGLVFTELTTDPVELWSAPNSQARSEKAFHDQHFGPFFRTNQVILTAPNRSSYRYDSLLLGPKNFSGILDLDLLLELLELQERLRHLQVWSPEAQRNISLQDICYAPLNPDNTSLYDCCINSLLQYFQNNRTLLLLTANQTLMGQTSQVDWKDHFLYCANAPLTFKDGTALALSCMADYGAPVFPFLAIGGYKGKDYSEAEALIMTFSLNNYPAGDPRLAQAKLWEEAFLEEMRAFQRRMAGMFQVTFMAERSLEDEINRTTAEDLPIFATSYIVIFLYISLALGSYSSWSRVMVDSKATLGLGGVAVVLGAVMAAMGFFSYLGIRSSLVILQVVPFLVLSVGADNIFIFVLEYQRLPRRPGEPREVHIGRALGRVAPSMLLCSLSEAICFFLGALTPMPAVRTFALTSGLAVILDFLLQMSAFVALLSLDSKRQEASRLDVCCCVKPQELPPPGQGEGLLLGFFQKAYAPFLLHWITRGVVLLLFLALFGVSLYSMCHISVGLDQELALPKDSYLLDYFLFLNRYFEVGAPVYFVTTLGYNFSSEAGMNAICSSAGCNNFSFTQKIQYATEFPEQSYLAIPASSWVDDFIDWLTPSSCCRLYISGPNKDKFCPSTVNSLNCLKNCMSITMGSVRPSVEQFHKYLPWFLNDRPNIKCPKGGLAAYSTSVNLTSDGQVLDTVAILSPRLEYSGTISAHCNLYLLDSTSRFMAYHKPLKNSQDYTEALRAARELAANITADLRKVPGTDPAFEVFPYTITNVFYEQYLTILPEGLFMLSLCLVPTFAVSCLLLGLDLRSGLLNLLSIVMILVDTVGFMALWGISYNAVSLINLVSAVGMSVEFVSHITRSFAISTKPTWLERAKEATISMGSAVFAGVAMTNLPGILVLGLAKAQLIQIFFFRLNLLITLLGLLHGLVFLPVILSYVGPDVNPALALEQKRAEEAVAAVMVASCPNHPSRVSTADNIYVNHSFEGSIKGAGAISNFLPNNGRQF

fatty acid absorption = details: in vivo

- reduction of sterol absorption [1]: about 50%
Compound: O=C1[C@H](CC[C@H](O)c2ccc(F)cc2)[C@@H](c2ccc(O)cc2)N1c1ccc(F)cc1 [Ezetimibe]
- effect on fatty acid absorption (fatty acid absorption): no effect
